Our source for the TGI values is PubChem BioAssay (NCI).

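These data come from cells grown in 96-well plates and exposed to compound for 48 hours at five concentrations. At the TGI there is no net growth.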

What all share (assay): inhibition of tumour cell growth, NCI panel, 48 h
For assay [1], the system named is HCT-15 colon.
In assay [2] the test system is OVCAR-5 ovarian.
Assay [3] relates to U251 CNS.
Assay [4] relates to BT-549 breast.
The subject of assay [5] is SK-MEL-28 melanoma.
In assay [6] the test system is NCI/ADR-RES ovarian.
In assay [7] the test system is LOX IMVI melanoma.
The subject of assay [8] is ACHN renal.
Assay [9] concerns SK-MEL-5 melanoma.
Assay [10] deals with SK-OV-3 ovarian.
The subject of assay [11] is TK-10 renal.
The subject of assay [12] is SR leukemia.
For assay [13], the system named is SW-620 colon.

Consider `Nc1nc(SCC(=O)c2ccccc2)nc2nc3c(c(-c4ccccc4)c12)CCCC3`, for which the TGI in [1] was above 100 µM; in assay [2], above 100 µM; in [3], above 100 µM; in assay [4], above 100 µM; in assay [5] it was 61.9 µM; in assay [6], above 100 µM. In addition, the TGI is 61.7 µM in assay [7]; above 100 µM in assay [8]; above 100 µM in assay [9]; 76.8 µM in [10]; above 100 µM in assay [11]; above 100 µM in assay [12].

With `N/C(=N/O)c1cn(C2OC(CO)C(O)C2O)c2ncnc(NO)c12` (stereo not given), the TGI is above 100 µM in assay [1]; above 57.7 µM in assay [2]; 54.1 µM in [3]; above 100 µM in [4]; above 51.3 µM in assay [5]; 7.19 µM in assay [6]. Besides, the TGI in assay [7] is 4.53 µM; in [8], 4.72 µM; in assay [9] it was 0.892 µM; in assay [13] it was above 46.1 µM; in assay [11] it was above 33.6 µM; in assay [12], 0.262 µM.

With `CC(=O)/C(=C\n1c(=S)[nH]c2ccc([N+](=O)[O-])cc21)C(=O)Nc1ccccc1C`, the TGI in [1], in [2], in assay [3], in [4], in assay [5] and in assay [6] was above 100 µM in each case. In addition, the TGI in assay [7], in assay [8], in [9], in assay [10], in [13] and in [12] was above 100 µM throughout.

For the compound `COc1cc(-c2c(C(C)=O)c(-c3ccccc3)n(C3OC(COC(C)=O)C(OC(C)=O)C(OC(C)=O)C3OC(C)=O)c(=S)c2C#N)ccc1O` (stereo not given), the TGI in assay [1] was above 100 µM; in assay [2] it was above 100 µM; in assay [3] it was above 100 µM; in assay [4], 82.4 µM; in assay [5], above 100 µM; in [6] it was above 100 µM. Moreover, the TGI in assay [7], in assay [8], in [9], in assay [13] and in assay [12] was above 100 µM each time.

Turning to `COc1ccc2c(c1)OCC1Cc3cccc(OC)c3OC21` (stereo not given), the TGI in assay [1] is above 100 µM; in assay [2] it was above 100 µM; in assay [3], above 100 µM; in assay [4], 80 µM; in assay [6] it was above 100 µM; in assay [7], above 100 µM. Besides, the TGI was 35.7 µM in [9]; above 100 µM in [10]; above 100 µM in [13]; above 100 µM in [11]; above 100 µM in assay [12].

In the case of `O=C1c2cc([N+](=O)[O-])cnc2S(=O)(=O)N1c1ccc(Oc2ccccc2)cc1`, the TGI in assay [1], in [2], in [3], in assay [4], in [5] and in [6] was above 100 µM throughout. Also, the TGI in assay [7], in assay [8], in assay [10], in [13], in assay [11] and in assay [12] was above 100 µM in each case.

For `N#CCCN(CCC#N)c1ccc(/C=C2\N=C(c3ccccc3)N(NC(=O)c3ccncc3)C2=O)cc1`, the TGI in assay [1], in assay [2], in assay [3], in assay [4], in assay [5] and in assay [6] was above 100 µM each time. In addition, the TGI in assay [7], in assay [8], in assay [9], in assay [10], in [13] and in assay [11] was above 100 µM throughout.

`CSc1ccc(C=C2N=C(c3ccccc3)N(c3cc(C(=O)c4ccccc4)ccc3N3C(=O)/C(=C/c4ccc(SC)cc4)N=C3c3ccccc3)C2=O)cc1`: the TGI in [1], in [2], in [3], in assay [4], in assay [5] and in assay [6] was above 100 µM throughout. The TGI in assay [7], in assay [8], in assay [9], in [10], in assay [13] and in assay [11] was above 100 µM in each case.

With `CN(N=O)C(N)=NC(=O)c1ccccc1`, the TGI in assay [1], in assay [2], in [3], in assay [4], in assay [6] and in [7] was above 100 µM throughout. Further, the TGI in assay [8], in [9], in assay [10], in [13], in [11] and in assay [12] was above 100 µM each time.

In the case of `CC(=O)Nc1ccccc1S(=O)(=O)c1c(-c2c(C)c(Cl)c(C)c(Cl)c2C)noc1C`, the TGI was above 100 µM in [1]; above 100 µM in assay [2]; 95.5 µM in assay [3]; above 100 µM in assay [4]; above 100 µM in assay [5]; above 100 µM in assay [6]. For the same compound, the TGI was above 100 µM in [8]; above 100 µM in [9]; above 100 µM in [10]; above 100 µM in assay [13]; 73.7 µM in assay [11]; 43.2 µM in [12].

For `COC(=O)[C@@H](COC(=O)/C=C/c1ccc(OC(C)=O)c(OC(C)=O)c1)NC(=O)/C=C/c1ccc(OC(C)=O)c(OC(C)=O)c1`, the TGI in [1] is 91.4 µM; in [2] it was above 100 µM; in [3], above 100 µM; in [4], above 100 µM; in [5], above 100 µM; in assay [6], above 100 µM. The TGI is 38.1 µM in [7]; above 100 µM in assay [8]; 30 µM in assay [9]; above 100 µM in assay [10]; above 100 µM in [13]; above 100 µM in assay [12].
